Values of other authors in patent publication US6825382B2, “Trifluoromethylepinephrine compounds and methods of making and using thereof” (The United States of America as represented by the …, priority 2002, dated 2004).
Read-outs that look alike come from different tables or passages of the source.

Assays:
[1] = 1a versus 1b

Row | epinephrine remaining, of the initial concentration (dental preparations stored under clinical conditions) | epinephrine remaining, of the initial concentration (dental preparations stored under optimal conditions) [%] | SMILES | biological activity of (R)-enantiomer relative to (S)-enantiomer [1]
1 |  |  | CNC[C@H](O)c1ccc(O)c(O)c1 [1a, (−)-epinephrine] | 15-20 times
2 | less than 70% | 85 to 90 | CNC[C@H](O)c1ccc(O)c(O)c1 [epinephrine] | 
